Assay results: patent US20080220499A1, “NOVEL PROTEASE FOR INDUSTRIAL APPLICATIONS” (priority 2006, published 2008)

Tests used:
Format in all cases: biochemical
[1] = tested on: protease isolated from Pseudomonas aeruginosa MCM B-327; assay: Effect of inhibitors on protease activity; conditions: for Enzyme activity: incubated 30 min, None = 42.77
Experimental: (§1) This example illustrates the effect of inhibitors on activity of the protease isolated from Pseudomonas aeruginosa MCM B-327 when grown in soybean meal−tryptone (HiMedia) medium. The cell free supernatant was salt precipitated and used for this study in Tris-HCl buffer, pH 8.0 at 37° C. The enzyme and the inhibitor were incubated for 30 min prior to enzyme assay.

[2] = tested on: protease isolated from Pseudomonas aeruginosa MCM B-327; assay: Effect of metal ions on protease activity; conditions: Tris-HCl pH 8.0, 37° C.; for Enzyme activity: None = 42.77
Experimental: This example illustrates the effect of metal ions on activity of the protease isolated from Pseudomonas aeruginosa MCM B-327 when grown in soybean meal−tryptone (HiMedia) medium. The cell free supernatant was salt precipitated and used for this study in Tris-HCl buffer, pH 8.0 at 37° C.

[3] = tested on: protease isolated from Pseudomonas aeruginosa MCM B-327; assay: Effect of organic solvents on protease activity; conditions: for inhibition of the enzyme: 50% v/v, after 30 min of incubation; for Enzyme activity: organic solvent 50% v/v, 30 min of incubation, Tris-HCl pH 8.0, 37° C., None = 42.77
Experimental: The cell free supernatant was salt precipitated and used for this study in Tris-HCl buffer, pH 8.0 at 37° C.

[4] = tested on: protease isolated from Pseudomonas aeruginosa MCM B-327; assay: Effect of ingredients of detergents on protease activity; conditions: for Enzyme activity: incubated 30 min prior to assay, Tris-HCl pH 8.0, 37° C., None = 42.77; for effect of surfactant on protease activity (in words): 1%
Experimental: as §1, with “ingredients of detergents” for “inhibitors”, “ingredients of detergent” for “the inhibitor”, “assay. The enzyme was stable in detergent ingredients while 20% inhibited by SDS.” for “assay.”

[5] = inhibitor 1 mM, Tris-HCl pH 8.0, 37° C.

Row | Compound | effect of metal ion on enzyme activity (in words) [2] | Enzyme activity ([2]; metal ion at 5 mM) [U/mg precipitate] | Enzyme activity [3] [U/mg precipitate] | other results
1 | O[C@@H](CS)[C@@H](O)CS [DTT, dithiothretol] |  |  |  | inhibition of the enzyme (in words) ([1]; 1 & 5 mM): completely inhibited; Enzyme activity [1, 5]: 0 U/mg precipitate; Enzyme activity ([1]; inhibitor 5 mM): 0 U/mg precipitate
2 | [Cl-].[Na+] [NaCl] | resistant to inhibition | 41.06 |  | 
3 | [Cl][Hg][Cl] [HgCl2] | affected the enzyme activity considerably | 6.84 |  | Enzyme activity ([2]; HgCl2 at 1 mM): 9.83 U/mg precipitate
4 | Cc1ccccc1 [Toluene] |  |  | 20.95 | inhibition of the enzyme [3]: 51%
5 | CC(C)CC(C)(C)C [Isooctane] |  |  | 28.65 | 
6 | [Ca+2].[Cl-].[Cl-] [CaCl2] | resistant to inhibition | 42.34 |  | 
7 | O=S(=O)([O-])[O-].[Cu+2] [CuSO4] | affected the enzyme activity considerably | 10.69 |  | 
8 | NC(=O)CI [Iodoacetamide] |  |  |  | Enzyme activity [1, 5]: 44.05 U/mg precipitate; Enzyme activity ([1]; inhibitor 5 mM): 43.62 U/mg precipitate
9 | O=S(=O)([O-])[O-].[Mg+2] [MgSO4] | resistant to inhibition | 42.77 |  | 
10 | c1ccccc1 [Benzene] |  |  | 11.54 | 
11 | CCCCCCCCCCCCOS(=O)(=O)[O-].[Na+] [SDS] |  |  |  | inhibition of the enzyme ([4]; detergent ingredient 1%, 30 min): 20%; Enzyme activity ([4]; detergent ingredient 1%): 34.21 U/mg precipitate
12 | O=C(O)CN(CCN(CC(=O)O)CC(=O)O)CC(=O)O [EDTA, Ethylenediamine tetra acetic acid] |  |  |  | Enzyme activity ([1]; inhibitor 2 mM): 32.93 U/mg precipitate; Enzyme activity ([1]; inhibitor 5 mM): 30.36 U/mg precipitate
13 | O=S(=O)([O-])[O-].[Zn+2] [ZnSO4] | affected the enzyme activity considerably | 12.40 |  | 
14 | CCO [Ethanol] |  |  | 3.84 | inhibition of the enzyme [3]: 91%
15 | Triton X100 |  |  |  | effect of surfactant on protease activity (in words) ([4]; 30 min): no inhibitory effect; Enzyme activity ([4]; detergent ingredient 1%): 41.49 U/mg precipitate
16 | O=S(=O)([O-])[O-].[Fe+2] [FeSO4] | resistant to inhibition | 37.64 |  | 
17 | CCCCCC [n-hexane] |  |  | 26.94 | 
18 | CO [Methanol] |  |  | 14.11 | 
19 | O=S(=O)(F)Cc1ccccc1 [PMSF, Phenyl methyl sulphonyl fluoride] |  |  |  | Enzyme activity [1, 5]: 40.20 U/mg precipitate; Enzyme activity ([1]; inhibitor 5 mM): 31.65 U/mg precipitate
20 | O=P(O)(O)OP(=O)(O)OP(=O)(O)O [Sodium tripolyphosphate] |  |  |  | Enzyme activity ([4]; detergent ingredient 1%): 44.05 U/mg precipitate
21 | O=S(=O)([O-])[O-].[Mn+2] [MnSO4] | resistant to inhibition | 37.21 |  | 
22 | CCCCC=O [1-pentanone] |  |  | 11.54 | 
23 | CCCCCCCC/C=C\CCCCCCCC(=O)OCCOCC(OCCO)C1OCC(OCCO)C1OCCO (centres unmarked) [Tween 80] |  |  |  | effect of surfactant on protease activity (in words) ([4]; 30 min): no inhibitory effect; Enzyme activity ([4]; detergent ingredient 1%): 43.62 U/mg precipitate
24 | CC(C)=O [Acetone] |  |  | 13.68 | 
25 | m-p-xylene |  |  | 28.65 | 
